# Results reported in US20220412957A1, “METHODS OF TREATING CANCER PATIENTS WITH RAS NODE OR RTK TARGETED THERAPEUTIC AGENTS” (Celcuity Inc., priority 2019, published 2022).
# System: LPA1-initiated signaling in HER2-negative/PI3K//ERK/MEK/RAF/mTOR Wild-Type breast tumor cell samples
# Assay: impedance biosensor cell adhesion test, LPA1 agonist with RAS node inhibitors (Example 4)
# Assay type: cell-based, human
# Design: unit not given here
# Source text: Tissue and cell samples: 28 HER2-negative/PI3K//ERK/MEK/RAF/mTOR Wild-Type breast tumor cell samples were studied. […] From these responses, the net amount of LPA1-initiated signaling involving PI3K-α, Class 1 PI3K-isoforms (pan-PI3K), Class 1 PI3K-isoforms and mTOR, Bcl-xL and Bcl-2, MEK, ERK, and RAF, individually and in combination, was quantified.
# In this example, 14 of the 28 patient cell samples tested recorded output values with at least one of the targeted therapeutic(s) above 250. […] Five patients would be selected to receive treatment with gedatolisib, four would be selected to receive treatment with copanlisib, one patient would be selected to receive treatment with PLX7904, six patients would be selected to receive treatment with gedatolisib and PLX7904, seven patients would be selected to receive treatment with gedatolisib and ravoxertinib, nine patients would be selected to receive treatment with gedatolisib and trametinib, and 14 patients would be selected to receive treatment with gedatolisib and navitoclax.
# [1] = sample C1838.01.155, cut-off 250
# [2] = sample C1986.01.10, cut-off 250
# [3] = sample C2090.01.14, cut-off 250
# [4] = sample C2169.01.10, cut-off 250
# [5] = sample C3091.01.13, cut-off 250
# [6] = sample C3132.01.13, cut-off 250
# [7] = sample C3311.01.10, cut-off 250
# [8] = sample CL021.01.869, cut-off 250
Structure (SMILES),"output value (sample C1816.01.6, cut-off 250)",output value [1],"output value (sample C1918.01.5, cut-off 250)",output value [2],output value [3],"output value (sample C2167.01.4, cut-off 250)",output value [4],"output value (sample C2483.01.6, cut-off 250)","output value (sample C2693.01.2, cut-off 250)","output value (sample C2697.01.4, cut-off 250)","output value (sample C2729.01.4, cut-off 250)","output value (sample C2748.01.4, cut-off 250)","output value (sample C2792.01.2, cut-off 250)","output value (sample C2794.01.9, cut-off 250)","output value (sample C2868.01.6, cut-off 250)","output value (sample C2991.01.7, cut-off 250)",output value [5],"output value (sample C3101.01.6, cut-off 250)",output value [6],output value [7],other results
C[C@H](Nc1ccc2c(c1)OCCn1cc(N3C(=O)OC[C@H]3C(F)F)nc1-2)C(N)=O [GDC-0077],−22,38,38,62,36,−12,34,113,−24,31,34,65,43,−89,−24,55,60,0,0,14,"output value (sample C3337.01.6, cut-off 250): 139; output value (sample C3377.01.2, cut-off 250): −161; output value (sample C3507.01.5, cut-off 250): −58; output value (sample C3730.01.9, cut-off 250): −113; output value (sample C3873.01.4, cut-off 250): 122; output value (sample C3957.01.6, cut-off 250): −10; output value (sample C4005.01.2, cut-off 250): −12; output value [8]: −466"
CCN(C)S(=O)(=O)Nc1ccc(F)c(C(=O)c2c[nH]c3ncc(-c4cnc(C5CC5)nc4)cc23)c1F [PLX7904],158,−91,−5,−19,−38,22,14,67,−10,−2,−2,14,5,36,−12,53,50,262,22,−17,"output value (sample C3337.01.6, cut-off 250): 58; output value (sample C3377.01.2, cut-off 250): −58; output value (sample C3507.01.5, cut-off 250): 46; output value (sample C3730.01.9, cut-off 250): −173; output value (sample C3873.01.4, cut-off 250): 89; output value (sample C3957.01.6, cut-off 250): −22; output value (sample C4005.01.2, cut-off 250): −22; output value [8]: 19"
CN(C)C1CCN(C(=O)c2ccc(NC(=O)Nc3ccc(-c4nc(N5CCOCC5)nc(N5CCOCC5)n4)cc3)cc2)CC1 [gedatolisib],84,50,206,101,137,132,242,130,86,103,103,72,137,38,79,396,204,149,65,216,"output value (sample C3337.01.6, cut-off 250): 336; output value (sample C3377.01.2, cut-off 250): 113; output value (sample C3507.01.5, cut-off 250): 70; output value (sample C3730.01.9, cut-off 250): 494; output value (sample C3873.01.4, cut-off 250): 298; output value (sample C3957.01.6, cut-off 250): 74; output value (sample C4005.01.2, cut-off 250): 216; output value [8]: 353"
"COc1c(OCCCN2CCOCC2)ccc2c1N=C(NC(=O)c1cnc(N)nc1)N1CCN=C21 [Copanlisib, copanlisib]",374,10,113,170,103,67,199,113,46,103,72,55,98,14,58,310,156,70,38,430,"output value (sample C3337.01.6, cut-off 250): 240; output value (sample C3377.01.2, cut-off 250): 86; output value (sample C3507.01.5, cut-off 250): 94; output value (sample C3730.01.9, cut-off 250): 511; output value (sample C3873.01.4, cut-off 250): 199; output value (sample C3957.01.6, cut-off 250): 53; output value (sample C4005.01.2, cut-off 250): 125; output value [8]: −259"
